In US9920061B2, “Imidazo[1,5-A]pyrimidinyl carboxamide compounds and their use in the treatment of medical disorders” (Lysosomal Therapeutics Inc., priority 2016, dated 2018):
Values after ≈ are worked out from the molar mass of the structure shown.

Columns and labels:
[1] = Compound solubility in water; assay type: physicochemical
[2] = target: T1, glucocerebrosidase (Gcase) (Homo sapiens, UniProt P04062); assay: Glucocerebrosidase (Gcase) activation assay, 4-methylumbelliferyl-beta-D-glucopyranoside substrate, with saposin C; assay type: biochemical; conditions: for activation at 0.1 µM: 0.1 μM test compound, read-out: Percent Gcase Activation 0.1 μM Test Compound; for activation at 1 µM: 1 μM test compound, read-out: Percent Gcase Activation 1 μM Test Compound
T1 sequence (P04062 40-536): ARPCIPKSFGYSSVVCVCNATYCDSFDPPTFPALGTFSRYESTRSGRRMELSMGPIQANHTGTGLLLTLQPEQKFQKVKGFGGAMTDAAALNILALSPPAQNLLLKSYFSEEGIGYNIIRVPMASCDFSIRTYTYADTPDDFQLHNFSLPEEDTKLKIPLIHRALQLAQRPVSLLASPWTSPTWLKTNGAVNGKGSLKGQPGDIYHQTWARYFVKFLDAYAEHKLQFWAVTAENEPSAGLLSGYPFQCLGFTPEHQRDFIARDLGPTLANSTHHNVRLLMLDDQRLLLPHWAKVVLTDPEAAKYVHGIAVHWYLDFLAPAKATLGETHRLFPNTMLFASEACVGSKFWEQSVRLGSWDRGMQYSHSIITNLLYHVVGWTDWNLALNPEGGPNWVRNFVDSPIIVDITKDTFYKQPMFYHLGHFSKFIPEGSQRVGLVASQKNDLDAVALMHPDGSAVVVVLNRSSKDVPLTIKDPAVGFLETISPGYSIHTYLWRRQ
Method: The ability of exemplary compounds to activate glucocerebrosidase (Gcase) was measured.
A 484 μL aliquot of a 1.0 mg/mL solution of phosphatidylserine (PS) (Sigma P7769) in chloroform was evaporated under a stream of nitrogen for 1 hour. The lipid film was dissolved over 4 minutes of vigorous vortexing in 40 mL of 176 mM K2HPO4/50 mM citric acid (pH 4.7) containing 7.5 μL of triton X-100, resulting in a mixed micellar preparation with a composition of 0.32 mM triton and 0.37 mol % PS. 4-Methylumbelliferyl-beta-D-glucopyranoside (ACROS-337025000) was dissolved in the micellar solution to a final concentration of 2 mM for use as the reaction substrate.
Test compounds were diluted to the desired concentrations with dimethylsulfoxide (DMSO) from 10 mM stocks, and 0.41 μL of the DMSO compound mixture was added to 100 μL of micellar solution containing 10 nM GCase and 100 nM saposin C (Enzo ALX-201-262-C050). Pre-incubation was allowed to occur for 30 minutes at room temperature, after which the reaction was initiated by combining 25 μL of substrate solution with 25 μL of compound/GCase/saposin mixture. The reaction proceeded for 15 minutes at room temperature and was stopped by adding 150 μL of 1M glycine, pH 12.5. The endpoint of the reaction was monitored by measuring fluorescence intensity (excitation: 365 nm; emission: 440 nm) on a SpectraMax i3 instrument (Molecular Devices). Test compounds were screened at 1.0 and 0.1 μM final concentration, and subsequent 8-point dose response curves were obtained using 3-fold dilutions from a maximum final concentration of […].

Row | SMILES | solubility [1] | activation at 0.1 µM [2] | activation at 1 µM [2]
1 | Cc1cc(-c2cccc(F)c2)nc2c(C(=O)NC(C)C3CC3)ncn12 (stereo not drawn) [III-50] | 33.3 µg/mL (≈ 98.4 µM) | > 20% | > 60%
2 | Cc1cc(-c2ccccc2F)nc2c(C(=O)NC(C)C3CC3)ncn12 (stereo not drawn) [III-51] | 22.7 µg/mL (≈ 67.1 µM) | < 10% | > 60%
3 | COc1ccccc1-c1cc(C)n2cnc(C(=O)NC(C)C3CC3)c2n1 (stereo not drawn) [III-52] | 11.6 µg/mL (≈ 33.1 µM) | > 20% | > 60%
4 | COc1cccc(-c2cc(C)n3cnc(C(=O)NC(C)C4CC4)c3n2)c1 (stereo not drawn) [III-55] | 7.8 µg/mL (≈ 22.3 µM) | > 20% | > 60%
5 | Cc1cc(-c2cnccn2)nc2c(C(=O)NC(C)(C)C3CC3)ncn12 [III-56] | 16.2 µg/mL (≈ 48.2 µM) | < 10% | 30 to 60%
6 | Cc1cc(-c2cncnc2)nc2c(C(=O)NC(C)(C)C3CC3)ncn12 [III-57] | 23.4 µg/mL (≈ 69.6 µM) | < 10% | < 30%
7 | Cc1cc(-c2cncs2)nc2c(C(=O)NC(C)(C)C3CC3)ncn12 [III-58] | 44.4 µg/mL (≈ 130 µM) | < 10% | > 60%
8 | Cc1cc(-c2cnsc2)nc2c(C(=O)NC(C)(C)C3CC3)ncn12 [III-59] | 2.1 µg/mL (≈ 6.15 µM) | 10 to 20% | > 60%
9 | Cc1cc(-c2ccns2)nc2c(C(=O)NC(C)(C)C3CC3)ncn12 [III-60] | 4 µg/mL (≈ 11.7 µM) | 10 to 20% | > 60%
10 | Cc1cc(-c2nccs2)nc2c(C(=O)NC(C)(C)C3CC3)ncn12 [III-61] | 5.5 µg/mL (≈ 16.1 µM) | 10 to 20% | > 60%
11 | Cc1cc(-c2cscn2)nc2c(C(=O)NC(C)(C)C3CC3)ncn12 [III-62] | 6.3 µg/mL (≈ 18.5 µM) | < 10% | > 60%
12 | CCCCO[C@H]1C[C@H]2CC[C@@H](C1)[C@H]2NC(=O)c1ncn2c(C)cc(-c3cccnc3)nc12 [III-63] | 3.5 µg/mL (≈ 8.07 µM) | > 20% | > 60%
13 | Cc1cc(-c2cccnc2)nc2c(C(=O)N[C@H]3CC[C@H](OC(C)(C)C)CC3)ncn12 [III-64] | 32.2 µg/mL (≈ 79 µM) | < 10% | < 30%
14 | CCCO[C@H]1CC[C@H](NC(=O)c2ncn3c(C)cc(-c4cccnc4)nc23)CC1 [III-65] | 15.4 µg/mL (≈ 39.1 µM) | < 10% | < 30%
15 | Cc1cc(-c2cccnc2)nc2c(C(=O)N[C@H]3CC[C@H](OCC(C)C)CC3)ncn12 [III-66] | 16 µg/mL (≈ 39.3 µM) | < 10% | 30 to 60%
16 | Cc1cc(-n2ccnc2)nc2c(C(=O)NC(C)(C)C3CC3)ncn12 [III-67] | 23.4 µg/mL (≈ 72.1 µM) | < 10% | < 30%
17 | Cc1cc(-n2cncn2)nc2c(C(=O)NC(C)(C)C3CC3)ncn12 [III-68] | 27.3 µg/mL (≈ 83.9 µM) | < 10% | < 30%
18 | Cc1cc(-c2ccnn2C)nc2c(C(=O)NC(C)(C)C3CC3)ncn12 [III-69] | 8.5 µg/mL (≈ 25.1 µM) | < 10% | < 30%
19 | Cc1cc(-n2cccn2)nc2c(C(=O)NC(C)(C)C3CC3)ncn12 [III-70] | 10.5 µg/mL (≈ 32.4 µM) | < 10% | 30 to 60%

Row | SMILES | solubility [1] | activation at 0.1 µM [2] | activation at 1 µM [2]
20 | Cc1cc(-c2cccnc2)nc2c(C(=O)NC(C3CC3)C(F)(F)F)ncn12 (stereo not drawn) [III-71] | 22.5 µg/mL (≈ 59.9 µM) | < 10% | > 60%
21 | Cc1cc(-c2ccccn2)nc2c(C(=O)NC(C3CC3)C(F)(F)F)ncn12 (stereo not drawn) [III-72] | 4.7 µg/mL (≈ 12.5 µM) | 10 to 20% | > 60%
22 | CO[C@H]1CC[C@H](C(C)(C)NC(=O)c2ncn3c(C)cc(-c4cccnc4)nc23)CC1 [III-73] | 19.3 µg/mL (≈ 47.4 µM) | < 10% | < 30%
23 | CO[C@H]1CC[C@@H](C(C)(C)NC(=O)c2ncn3c(C)cc(-c4cccnc4)nc23)CC1 [III-74] | 19.3 µg/mL (≈ 47.4 µM) | < 10% | 30 to 60%
24 | Cc1cc(-c2ccc(Cl)nc2)nc2c(C(=O)N[C@@H](C)C3CC3)ncn12 [III-75] | 4.9 µg/mL (≈ 13.8 µM) | < 10% | 30 to 60%
25 | Cc1cc(-c2ccc(Cl)nc2)nc2c(C(=O)NC(C)(C)C3CC3)ncn12 [III-76] | 1.1 µg/mL (≈ 2.97 µM) | 10 to 20% | > 60%
26 | Cc1cc(C2CCCOC2)nc2c(C(=O)NC(C)(C)C3CC3)ncn12 (stereo not drawn) [III-78] | 23.2 µg/mL (≈ 67.7 µM) | < 10% | < 30%
27 | Cc1cc(-c2ccc(F)cc2)nc2c(C(=O)N[C@@H](C)C3CCC3)ncn12 [III-79] | 3 µg/mL (≈ 8.51 µM) | 10 to 20% | > 60%
28 | Cc1cc(-c2ccc(F)cc2)nc2c(C(=O)NC(C)C3CCCO3)ncn12 (stereo not drawn) [III-80] | 14.5 µg/mL (≈ 39.4 µM) | < 10% | < 30%
29 | Cc1cc(-c2cn(C)nn2)nc2c(C(=O)NC(C)(C)C3CC3)ncn12 [III-82] | 22.8 µg/mL (≈ 67.2 µM) | < 10% | < 30%
30 | Cc1cc(-c2ccc(F)c(F)c2)nc2c(C(=O)NC(C)C3CC3)ncn12 (stereo not drawn) [III-85] | 1.2 µg/mL (≈ 3.37 µM) | > 20% | > 60%
31 | Cc1cc(-c2ccccc2)nc2c(C(=O)NC(C)C3CC3)ncn12 (stereo not drawn) [III-86] | 13.1 µg/mL (≈ 40.9 µM) | > 20% | > 60%
32 | Cc1cc(-c2ccc(F)cc2)nc2c(C(=O)NC(C3CC3)C3CC3)ncn12 [III-87] | 2.2 µg/mL (≈ 6.04 µM) | > 20% | > 60%
33 | Cc1cc(-c2ccc(F)cc2)nc2c(C(=O)NC(C)(C)C)ncn12 [III-88] | 2 µg/mL (≈ 6.13 µM) | < 10% | > 60%
34 | Cc1cc(-c2cccnc2)nc2c(C(=O)NC(C)(C)C)ncn12 [III-89] | 24.5 µg/mL (≈ 79.2 µM) | < 10% | < 30%
35 | CCNc1cc(C)n2cnc(C(=O)NC(c3ccc(F)cc3)C(F)(F)F)c2n1 (stereo not drawn) [III-90] | 2.2 µg/mL (≈ 5.56 µM) | > 20% | > 60%
36 | Cc1cc(NC2CC2)nc2c(C(=O)NC(c3ccc(F)cc3)C(F)(F)F)ncn12 (stereo not drawn) [III-91] | 0.8 µg/mL (≈ 1.96 µM) | > 20% | > 60%
37 | Cc1cc(N2CCCC(F)(F)C2)nc2c(C(=O)NC(C)(C)C3CC3)ncn12 [III-92] | 9.6 µg/mL (≈ 25.4 µM) | 10 to 20% | > 60%
38 | Cc1cc(-c2ccncc2)nc2c(C(=O)NC(C)(C)C3CC3)ncn12 [III-93] | 18.8 µg/mL (≈ 56.1 µM) | < 10% | < 30%
